Columns and labels:
[1] = target: T1, Transient receptor potential cation channel subfamily V member 1 (Homo sapiens, UniProt Q8NER1); experiment: Percent induction of [Ca2+] influx compared to subsequent 80% maximal capsaicin response in human vanilloid receptor 1 expressing HEK293 cells; format: functional, cell-based
[2] = target: T1, Transient receptor potential cation channel subfamily V member 1; experiment: Induced [Ca2+] influx in Vanilloid receptor subtype 1 expressing HEK 293 cells; format: functional, cell-based, HEK293
[3] = target: T1, Transient receptor potential cation channel subfamily V member 1; experiment: Inhibition of [3H]RTX binding to human Vanilloid receptor subtype 1 expressed in HEK293 cells; format: cell-based
[4] = target: Transient receptor potential cation channel subfamily V member 1 (Rattus norvegicus) (UniProt O35433); experiment: Percent induction of [Ca2+] influx compared to subsequent 80% maximal capsaicin response in rat Vanilloid receptor 1 expressing HEK293 cells; format: functional, cell-based
Transient receptor potential cation channel subfamily V member 1 (Rattus norvegicus), sequence (O35433 whole entry): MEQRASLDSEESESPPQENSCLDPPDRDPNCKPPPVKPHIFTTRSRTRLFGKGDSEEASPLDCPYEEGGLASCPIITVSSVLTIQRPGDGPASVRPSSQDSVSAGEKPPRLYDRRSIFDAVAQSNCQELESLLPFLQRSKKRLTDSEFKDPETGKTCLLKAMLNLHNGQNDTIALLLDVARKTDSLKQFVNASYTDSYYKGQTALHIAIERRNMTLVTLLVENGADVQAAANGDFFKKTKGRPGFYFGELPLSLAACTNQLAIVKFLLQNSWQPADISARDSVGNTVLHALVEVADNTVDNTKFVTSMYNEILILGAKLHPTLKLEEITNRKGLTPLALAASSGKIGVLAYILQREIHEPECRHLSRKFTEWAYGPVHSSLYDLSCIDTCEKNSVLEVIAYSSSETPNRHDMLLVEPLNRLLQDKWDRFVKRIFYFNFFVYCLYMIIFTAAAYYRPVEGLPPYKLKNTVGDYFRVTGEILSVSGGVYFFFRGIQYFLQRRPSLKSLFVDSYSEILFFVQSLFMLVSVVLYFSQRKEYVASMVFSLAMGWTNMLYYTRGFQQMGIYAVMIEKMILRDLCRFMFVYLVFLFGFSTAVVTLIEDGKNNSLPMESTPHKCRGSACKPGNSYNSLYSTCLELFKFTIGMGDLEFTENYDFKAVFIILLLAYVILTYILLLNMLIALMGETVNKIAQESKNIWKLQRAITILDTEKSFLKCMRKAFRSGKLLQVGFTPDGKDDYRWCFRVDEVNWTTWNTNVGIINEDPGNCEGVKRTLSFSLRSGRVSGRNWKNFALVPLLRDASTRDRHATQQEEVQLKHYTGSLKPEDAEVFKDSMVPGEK

T1 sequence (Q8NER1 whole entry): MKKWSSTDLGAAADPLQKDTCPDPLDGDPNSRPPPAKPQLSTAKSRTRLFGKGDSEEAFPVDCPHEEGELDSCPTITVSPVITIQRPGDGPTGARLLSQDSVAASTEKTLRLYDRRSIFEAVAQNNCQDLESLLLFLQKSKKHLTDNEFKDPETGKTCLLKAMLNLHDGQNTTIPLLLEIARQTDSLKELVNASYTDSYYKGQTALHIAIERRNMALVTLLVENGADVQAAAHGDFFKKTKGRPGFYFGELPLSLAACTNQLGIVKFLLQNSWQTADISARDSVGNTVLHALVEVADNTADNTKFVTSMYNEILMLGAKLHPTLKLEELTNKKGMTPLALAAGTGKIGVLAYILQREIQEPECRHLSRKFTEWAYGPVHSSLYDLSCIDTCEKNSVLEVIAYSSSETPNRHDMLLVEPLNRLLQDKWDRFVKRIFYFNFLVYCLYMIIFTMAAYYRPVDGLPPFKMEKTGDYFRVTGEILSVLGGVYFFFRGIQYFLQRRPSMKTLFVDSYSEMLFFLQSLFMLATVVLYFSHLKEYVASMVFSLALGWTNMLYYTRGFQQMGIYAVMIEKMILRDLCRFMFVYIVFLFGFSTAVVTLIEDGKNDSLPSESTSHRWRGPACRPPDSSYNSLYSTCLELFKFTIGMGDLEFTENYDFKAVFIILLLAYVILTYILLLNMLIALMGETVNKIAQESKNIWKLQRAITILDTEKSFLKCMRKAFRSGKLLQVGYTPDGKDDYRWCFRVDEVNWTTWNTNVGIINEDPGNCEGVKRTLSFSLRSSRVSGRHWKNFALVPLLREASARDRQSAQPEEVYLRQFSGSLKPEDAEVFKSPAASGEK

Compound | Efficacy [1] [%] | EC50 [2] [nM] | Ki [3] [nM] | Efficacy [4] [%] | IC50 [2] [nM]
C=C(C)[C@]12C[C@@H](C)[C@@]34O[C@](Cc5ccccc5)(O[C@@H]1[C@@H]3C=C(COC(=O)Cc1cc(OC)c(O)cc1I)C[C@]1(O)C(=O)C(C)=C[C@@H]41)O2 | 50 | 130 | 0.71 | 92 | 
C=C(C)[C@]12C[C@@H](C)[C@@]34OC(Cc5ccccc5)(O[C@@H]1[C@@H]3C=C(COC(=O)Cc1ccc(O)c(OC)c1I)C[C@]1(O)C(=O)C(C)=C[C@@H]41)O2 |  |  | 1.4 |  | 27
C=C(C)[C@]12C[C@@H](C)[C@@]34O[C@](Cc5ccccc5)(O[C@@H]1[C@@H]3C=C(COC(=O)Cc1cc(OC)c(OC(C)=O)cc1I)C[C@]1(O)C(=O)C(C)=C[C@@H]41)O2 | 75 | 935 | 1.46 |  | 
C=C(C)[C@]12C[C@@H](C)[C@@]34O[C@](Cc5ccccc5)(O[C@@H]1[C@@H]3C=C(COC(=O)Cc1ccc(O)c(OC)c1)C[C@]1(O)C(=O)C(C)=CC41)O2 (single isomer, unassigned) [RESINIFERATOXIN] | 116 | 1.9 | 0.48 |  | 
